Results on two compounds are retold here after patent US12655116B2, “Substituted isophthalic acid diamides” (Bayer Aktiengesellschaft, priority 2020, dated 2026).

Experiment [1] concerns AMARE. Nature of the experiment: Pre-emergence herbicidal action against AMARE. Type of experiment: in vivo, Amaranthus retroflexus. In outline: (§1)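 Sandy loam pots, seeds covered with soil, then surface-treated with WP or EC formulations at 600–800 l/ha water plus 0.2% wetting agent. Greenhouse, 3 weeks. Percent damage vs untreated controls.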
The test system of experiment [2] is SETVI. Briefly: Post-emergence herbicidal action against SETVI. Type of experiment: in vivo, Setaria viridis. An outline of the steps:
(§2)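 Herbicidal action is a visual percentage rating (0% = as untreated control, 100% = plants dead) made roughly 3 weeks after treatment. Plants were grown in sandy loam in the greenhouse and treated at the one-leaf stage, 2 to 3 weeks post-sowing. Treatment was a foliar spray of wettable-powder or emulsion-concentrate formulations at 600 to 800 l/ha water plus 0.2% wetting agent.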

The next experiment has as its system MATIN. Nature of the experiment: Pre-emergence herbicidal action against MATIN. Type of experiment: in vivo, Matricaria inodora. An outline of the steps:
as §1

Experiment [3] deals with ECHCG. Briefly: Post-emergence herbicidal action against ECHCG. Type of experiment: in vivo, Echinochloa crus-galli. The settings on record: dosage 20 g/ha. In outline: as §2
The test system of experiment [4] is ALOMY. Briefly: Post-emergence herbicidal action against ALOMY. The conditions noted are these: visual assessment about 3 weeks after treatment vs untreated controls. Type of experiment: in vivo, Alopecurus myosuroides. In outline: as §2
Experiment [5] deals with ABUTH. Nature of the experiment: Pre-emergence herbicidal action against ABUTH. It is filed as in vivo, Abutilon theophrasti. An outline of the steps: as §1
The subject of experiment [6] is VIOTR. Briefly: Pre-emergence herbicidal action against VIOTR. Type of experiment: in vivo, Viola tricolor. An outline of the steps: as §1
Another experiment deals with PHBPU. Nature of the experiment: Pre-emergence herbicidal action against PHBPU. Type of experiment: in vivo, Pharbitis purpurea. The conditions noted are these: dosage 80 g/ha. In outline: as §1
For experiment [7], the system named is ECHCG. Nature of the experiment: Pre-emergence herbicidal action against ECHCG. It is filed as in vivo, Echinochloa crus-galli. The conditions noted are these: 80 g/ha. In outline:
as §1

Experiment [8] deals with VIOTR. Briefly: Post-emergence herbicidal action against VIOTR. It is filed as in vivo, Viola tricolor. An outline of the steps: as §2
Another experiment has as its system LOLRI. Nature of the experiment: Pre-emergence herbicidal action against LOLRI. Type of experiment: in vivo, Lolium rigidum. The settings on record: 80 g/ha. An outline of the steps: as §1
For a further experiment, the system named is AVEFA. Nature of the experiment: Pre-emergence herbicidal action against AVEFA. Type of experiment: in vivo, Avena fatua. The conditions noted are these: 80 g/ha, pre-emergence. In outline: as §1
The test system of experiment [9] is ALOMY. Briefly: Pre-emergence herbicidal action against ALOMY. Type of experiment: in vivo, Alopecurus myosuroides. In outline:
as §1

Experiment [10] has as its system SETVI. Nature of the experiment: Pre-emergence herbicidal action against SETVI. Type of experiment: in vivo, Setaria viridis. An outline of the steps:
as §1

The next experiment concerns DIGSA. Nature of the experiment: Pre-emergence herbicidal action against DIGSA. Type of experiment: in vivo, Digitaria sanguinalis. In outline:
as §1

Experiment [11] has as its system ABUTH. Briefly: Post-emergence herbicidal action against ABUTH. It is filed as in vivo, Abutilon theophrasti. The settings on record: Abutilon theophrasti, 504 h, visual assessment about 3 weeks after treatment vs untreated controls. In outline:
as §2

In experiment [12] the test system is AMARE. Nature of the experiment: Post-emergence herbicidal action against AMARE. Type of experiment: in vivo, Amaranthus retroflexus. The settings on record: Amaranthus retroflexus, 504 h, 20 g/ha, visual assessment about 3 weeks after treatment, 100% = plants have died, 0% = like control plants. In outline:
as §2

A further experiment has as its system VERPE. Briefly: Pre-emergence herbicidal action against VERPE. The conditions noted are these: Veronica persica, 504 h, dosage 80 g/ha. It is filed as in vivo, Veronica persica. In outline:
as §1

Where [13] appears, read: 80 g/ha, scored visually after 3 weeks vs untreated controls (100% = plants have died, 0% = like control plants).

`Cn1nnnc1NC(=O)c1ccc(Br)c(C(=O)NCC(F)F)c1Cl` [Example 1-182]: the “Pre-emergence action against AMARE in %” value in the experiment on AMARE [1] (20 g/ha, scored visually after 3 weeks vs untreated controls, 100% = plants have died, 0% = like control plants) came out at 100%; in the experiment with AMARE [1] (setting [13]), 100%. Moreover, the “Post-emergence action against SETVI in %” value in the experiment with SETVI [2] (dosage 5 g/ha) is 90%; with SETVI [2] (dosage 20 g/ha), 100%. The figures for the “Pre-emergence action against MATIN in %” value in the experiment with MATIN (dosage 20 g/ha) and in the experiment on MATIN (dosage 80 g/ha) were 90% and 100%, respectively. In addition, the “Post-emergence action against ECHCG in %” value with ECHCG [3] is 80%. Besides, the figures for the “Post-emergence action against ALOMY in %” value with ALOMY [4] (dosage 5 g/ha) and in the experiment with ALOMY [4] (dosage 20 g/ha) were 90% and 100%, respectively. For the same compound, the “Pre-emergence action against ABUTH (herbicidal activity)” value in the experiment with ABUTH [5] (setting [13]) is given as 100%. In addition, in the experiment on ABUTH [5] (dosage 20 g/ha, scored visually after 3 weeks vs untreated controls, 100% = plants have died, 0% = like control plants), the “Pre-emergence action against ABUTH (herbicidal activity in percent)” value is recorded as 100%. In addition, the “Pre-emergence action against VIOTR in %” value is 90% with VIOTR [6] (dosage 20 g/ha) and 100% in the experiment with VIOTR [6] (dosage 80 g/ha). In addition, the “Pre-emergence action against PHBPU in %” value in the experiment on PHBPU was 90%. In the experiment on ECHCG [7], the “Pre-emergence action against ECHCG in %” value is reported as 100%. Also, the “Post-emergence action against VIOTR in %” value in the experiment on VIOTR [8] (5 g/ha) and with VIOTR [8] (20 g/ha) was 100% in each case. Further, the “Pre-emergence action against LOLRI in %” value in the experiment on LOLRI is given as 80%. In addition, in the experiment with AVEFA, the “Pre-emergence action against AVEFA in %” value came out at 90%. Also, the “Pre-emergence action against ALOMY” value in the experiment with ALOMY [9] (20 g/ha, scored visually after 3 weeks, 100% = plants have died, 0% = like control plants) was found to be 80%. In addition, the “Pre-emergence action against ALOMY (herbicidal activity)” value in the experiment on ALOMY [9] (80 g/ha, pre-emergence, scored visually after 3 weeks vs untreated controls (100% = plants have died, 0% = like control plants)) amounted to 100%. For the same compound, the “Pre-emergence action against SETVI in %” value in the experiment on SETVI [10] (dosage 20 g/ha) and in the experiment on SETVI [10] (dosage 80 g/ha) was 100% throughout. The “Pre-emergence action against DIGSA in %” value in the experiment with DIGSA (dosage 20 g/ha) and with DIGSA (dosage 80 g/ha) was 100% throughout.
As for `CCCNC(=O)c1c(Br)ccc(C(=O)Nc2nnnn2CC)c1Cl` [Example 2-184], the pest or weed control at 20 g/ha in the experiment with AMARE [1] (Amaranthus retroflexus, 504 h, 20 g/ha, scored visually after 3 weeks vs untreated controls, 100% = plants have died, 0% = like control plants) worked out at 100%; with ABUTH [11] (dosage 20 g/ha), 90%; with MATIN (Tripleurospermum inodorum, 504 h, dosage 20 g/ha), 90%; with ECHCG [3] (Echinochloa crus-galli, 504 h) it was 100%; in the experiment with AMARE [12], 100%; in the experiment on ALOMY [4] (Alopecurus myosuroides, 504 h, dosage 20 g/ha) it was 100%. The pest or weed control at 20 g/ha in the experiment on ABUTH [5] (Abutilon theophrasti, 504 h, dosage 20 g/ha, scored visually after 3 weeks vs untreated controls, 100% = plants have died, 0% = like control plants, read-out: Pre-emergence action against ABUTH (herbicidal activity in percent)) worked out at 100%; with ALOMY [9] (Alopecurus myosuroides, pre-emergence, 504 h, 20 g/ha, scored visually after 3 weeks, 100% = plants have died, 0% = like control plants), 90%. The pest or weed control at 80 g/ha was found to be 100% in the experiment on AMARE [1] (Amaranthus retroflexus, 504 h, 80 g/ha, scored visually after 3 weeks vs untreated controls, 100% = plants have died, 0% = like control plants); 100% in the experiment with MATIN (Tripleurospermum inodorum, 504 h, dosage 80 g/ha); 100% in the experiment with ABUTH [5] (Abutilon theophrasti, 504 h, 80 g/ha, scored visually after 3 weeks vs untreated controls (100% = plants have died, 0% = like control plants)); 100% in the experiment on VIOTR [6] (Viola tricolor, 504 h, dosage 80 g/ha); 90% in the experiment on PHBPU (Ipomoea purpurea, 504 h); 100% in the experiment on ECHCG [7] (Echinochloa crus-galli, 504 h). The pest or weed control at 80 g/ha is 80% in the experiment with LOLRI (Lolium rigidum, 504 h); 90% in the experiment on AVEFA (Avena fatua, 504 h); 100% in the experiment with VERPE; 100% with ALOMY [9] (Alopecurus myosuroides, 504 h, 80 g/ha, pre-emergence, scored visually after 3 weeks vs untreated controls (100% = plants have died, 0% = like control plants)). Further, the pest or weed control at 5 g/ha in the experiment with ABUTH [11] (dosage 5 g/ha) was 90%; in the experiment on ALOMY [4] (Alopecurus myosuroides, 504 h, dosage 5 g/ha), 80%.
